Measured values: article PMC9218960 (ACS infectious diseases, 2020)
Where a chain is given by its changes, count along the chain named.

Assays:
PfENT1 I418M = molecular target: T1, PfENT1 I418M (Plasmodium falciparum, UniProt Q8IDM6, I418M); assay: [3H]uridine uptake inhibition by purines in PfENT1-SNP-expressing yeast; assay type: cell-based
T1 sequence (Q8IDM6 1-422 I418M): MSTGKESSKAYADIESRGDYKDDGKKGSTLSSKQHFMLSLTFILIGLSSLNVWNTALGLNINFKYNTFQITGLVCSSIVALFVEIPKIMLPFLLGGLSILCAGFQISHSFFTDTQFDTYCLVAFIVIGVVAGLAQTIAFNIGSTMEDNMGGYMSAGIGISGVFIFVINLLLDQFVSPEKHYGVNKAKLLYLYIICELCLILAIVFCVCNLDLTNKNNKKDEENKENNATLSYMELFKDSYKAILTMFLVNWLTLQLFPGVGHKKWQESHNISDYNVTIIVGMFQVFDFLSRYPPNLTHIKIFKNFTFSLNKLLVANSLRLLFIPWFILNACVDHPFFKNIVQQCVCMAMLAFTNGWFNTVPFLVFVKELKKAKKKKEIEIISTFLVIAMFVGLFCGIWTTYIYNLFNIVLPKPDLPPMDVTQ

PfENT1 A351S = molecular target: T2, PfENT1 A351S (Plasmodium falciparum, UniProt Q8IDM6, A351S); assay: as above; assay type: cell-based
T2 sequence (Q8IDM6 1-422 A351S): T1 sequence (Q8IDM6 1-422 I418M) with A351S, M418I

| SMILES | IC50 (PfENT1 I418M) [µM] | IC50 (PfENT1 A351S) [µM] |
| --- | --- | --- |
| OC[C@H]1O[C@@H](n2cnc3c(O)ncnc32)[C@H](O)[C@@H]1O [Inosine, inosine] | 12 ± 2 | 26 ± 9 |
| O=c1[nH]cnc2nc[nH]c12 [Hypoxanthine, hypoxanthine] | 145 ± 7 | 576 ± 270 |
| Nc1ncnc2nc[nH]c12 [Adenine, adenine] | 221 ± 36 | 1240 ± 142 |
